Data published in US20040235882A1, “Amino-substituted imidazopyridines for the treatment of gastrointestial diseases” (priority 2001, published 2004).

Test system: pentagastrin-stimulated acid secretion of the perfused rat stomach
Experiment: Secretion-inhibiting action on the perfused rat stomach (pentagastrin-stimulated acid secretion, in vivo)
Conditions: anesthetized female CD rat, pentagastrin 1 μg/kg i.v. infusion, dose 3 μmol/kg i.d. (intraduodenal)
Description: Testing of the secretion-inhibiting action on the perfused rat stomach
In Table A which follows, the influence of the compounds according to the invention on the pentagastrin-stimulated acid secretion of the perfused rat stomach after intraduodenal administration in vivo is shown.
The abdomen of anesthetized rats (CD rat, female, 200-250 g; 1.5 g/kg i.m. urethane) was opened after tracheotomy by a median upper abdominal incision and a PVC catheter was fixed transorally in the esophagus and another via the pylorus such that the ends of the tube just projected into the gastric lumen. The catheter leading from the pylorus led outward into the right abdominal wall through a side opening.
After thorough rinsing (about 50-100 ml), warm (37° C.) physiological NaCl solution was continuously passed through the stomach (0.5 ml/min, pH 6.8-6.9; Braun-Unita I). The pH (pH meter 632, glass electrode EA 147; φ=5 mm, Metrohm) and, by titration with a freshly prepared 0.01 N NaOH solution to pH 7 (Dosimat 665 Metrohm), the secreted HCl were determined in the effluent in each case collected at an interval of 15 minutes.
The gastric secretion was stimulated by continuous infusion of […] (=1.65 ml/h) of i.v. pentagastrin (left femoral vein) about 30 min after the end of the operation (i.e. after determination of 2 preliminary fractions). […]

Structure (SMILES) | Inhibition of acid secretion [%]
Cc1nc2c3c(ccn2c1C)[C@@H](N1CCOCC1)[C@@H](O)CN3 [Example 9, (7R,8S,9R)-8-Hydroxy-2,3-dimethyl-7-(4-morphollno)-7,8,9,10-tetrahydroimidazo[1.2-h]-[1.7]naphthyridine] | 44
Cc1nc2c3c(ccn2c1C)[C@@H](N(C)C)[C@@H](O)CN3 [Example 19, (7R,8S,9R)-8-Hydroxy-7-(dimethylamino)-2,3-dimethyl-7,8,9,10-tetrahydroimidazo[1.2-h]-[1.7]naphthyridine] | 64
